According to publication PMC5737711 (ACS chemical neuroscience, 2017):

Columns and labels:
[1] = biological target: CD36-Aβ interaction (recombinant extracellular domain of human CD36, fibrillar hAβ 1-42) (Homo sapiens, UniProt P16671); assay: Colorimetric assay for inhibitors of Aβ-CD36 interaction; assay type: binding; settings: for Activity on the CD36-Aβ interaction (screen): first evaluated at 100 μM
[2] = test system: N9 microglia cells; settings: cited from earlier work
[3] = test system: CD36-Aβ interaction; settings: cited from earlier work

CD36-Aβ interaction (recombinant extracellular domain of human CD36, fibrillar hAβ 1-42), sequence (P16671 30-439): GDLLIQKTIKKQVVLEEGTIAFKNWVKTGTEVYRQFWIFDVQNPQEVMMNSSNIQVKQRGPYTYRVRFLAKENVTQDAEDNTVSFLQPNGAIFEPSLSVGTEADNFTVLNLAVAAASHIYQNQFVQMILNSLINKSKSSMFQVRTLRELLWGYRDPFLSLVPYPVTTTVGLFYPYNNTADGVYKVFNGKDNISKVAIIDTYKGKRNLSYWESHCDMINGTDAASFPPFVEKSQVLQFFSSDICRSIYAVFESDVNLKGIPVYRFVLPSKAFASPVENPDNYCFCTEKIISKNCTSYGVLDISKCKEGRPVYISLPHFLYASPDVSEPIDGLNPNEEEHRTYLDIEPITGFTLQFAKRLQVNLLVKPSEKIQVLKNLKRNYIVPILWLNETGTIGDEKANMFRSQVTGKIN

| Mode of inhibition of the interaction CD36-Aβ ([1]; from dose response profile) | Activity on the CD36-Aβ interaction (screen) [1] | SMILES | Effect on production of ROS induced by Aβ [2] | Inhibition of CD36-Aβ interaction in a cell-based assay [3] |
| --- | --- | --- | --- | --- |
| competitive inhibitor |  | C[C@H]1[C@H](C)CC[C@]2(C(=O)O)CC[C@]3(C)C(=CC[C@@H]4[C@@]5(C)CC[C@H](O)C(C)(C)[C@@H]5CC[C@]43C)[C@H]12 [ursolic acid] | inhibits the production of ROS | inhibitor of CD36-Aβ interaction |
|  | lacked activity | COc1ccc2cc(NC(=O)C3=NO[C@H]4[C@H](O)C=C[C@@H](Cl)[C@@]4(O)C3)c(=O)oc2c1OC [Compound 2, Trichodermamide B] |  |  |
|  | lacked activity | COc1ccc2cc(NC(=O)C3=NO[C@H]4[C@H](O)C=C[C@@H](O)[C@@]4(O)C3)c(=O)oc2c1OC [Compound 1, Trichodermamide A] |  |  |
